Data: PMC7570662, “In Vivo Pharmacokinetic Analysis Utilizing Non-Targeted and Targeted Mass Spectrometry and In Vitro Assay against Transient Receptor Potential Channels of Maobushisaishinto and Its Constituent Asiasari Radix” (Molecules, 2020)

Columns and labels:
human TRPV4 = biological target: T1, human TRPV4 (Homo sapiens, UniProt Q9HBA0); test: Ca2+ influx assay in TRPV4-expressing T-REx-293 cells; assay type: cell-based; conditions: 10 µmol/L test compound, relative to 4 µmol/L GSK1016790A; for activation at 10 µM: T-REx-293, read-out: % of Activation Compared to Positive Control against Each Subfamily of TRP Channel TRPV4
T1 construct: Each full-length human TRPA1, TRPV1, TRPV4, and TRPM8 coding regions were introduced into a pcDNA4/TO vector; expressed in transfected cells; host or cells: T-REx-293 cells (tetracycline-induced, pcDNA4/TO vector)
Experimental: Each full-length human TRPA1, TRPV1, TRPV4, and TRPM8 coding regions were introduced into a pcDNA4/TO vector (Thermo Fisher Scientific, Waltham, MA, USA) and transfected into T-REx-293 cells (Thermo Fisher Scientific) to obtain stable cell lines expressing human TRPA1, TRPV1, TRPV4, and TRPM8. Cells were cultured in DMEM with 10% FBS, 4 mmol/L L-glutamine, and penicillin/streptomycin.
Cells were suspended in medium with 1 µg/mL tetracycline and seeded in poly-D-lysine coated 96-well plate at 2.5 × 10^4 cells/well. After overnight culture, the cells were used for Ca^2+ influx assay.
The Ca^2+ influx assay was performed using a FLIPR Calcium 5 Assay Kit (Molecular Devices, Sunnyvale, CA, USA) according to previously reported methods with minor modifications. In brief, cells were incubated with 80 µL Ca^2+-chelating dye dissolved in assay buffer at pH 7.4 (Hanks’ Balanced Salt Solution containing 20 mmol/L of N-2-hydroxyethylpiperazine-N’-2-ethanesulfonic acid) at room temperature for 30 min. The plates were assayed using a FlexStation 3 Microplate Reader (Molecular Devices). The fluorescence intensity was traced entirely for 80 s. The baseline of fluorescence was measured for 20 s before adding 20 µL of test compound (final concentration, 10 µmol/L). The response was expressed as percentage activation using the relative fluorescence units (RFU) (% activation = 100 × ((RFUmax − RFUbaseline)/RFUbaseline) − 100). Furthermore, the activities of each test compound against several subfamilies of TRP channels were represented as the relative enhancement of Ca^2+ influx of each positive control, indicated as follows: 20 µmol/L of allyl isothiocyanate (an agonist of TRPA1), 2 µmol/L of capsaicin (an agonist of TRPV1), 4 µmol/L of GSK1016790A (an agonist of TRPV4), and 20 µmol/L of icilin (an agonist of TRPM8). The dose–response curve was fitted to the sigmoidal dose-response equation (top, the max response of each compound), and EC50 values were calculated using GraphPad Prism 7 software (GraphPad, San Diego, CA, USA).

[1] = Qualitative non-targeted LC-HRMS analysis of AR compounds in rat plasma after oral AR or MBST; assay type: in vivo; conditions: for Detection in plasma of rats treated with AR or MBST (non-targeted analysis): po
Experimental: Extract powders of AR or MBST were suspended in distilled water and orally administered to rats having fasted for approximately 16 h. The dose of AR was set at 2 g/kg, and the MBST doses were set at 1 and 2 g/kg. 1 g/kg MBST contained 578 µg/kg, 147 µg/kg, 226 µg/kg, 426 µg/kg asarinin, sesamin, methyl kakuol, and amide A, respectively. The doses were chosen based on a previous pharmacological study of MBST using rats.
According to previous pharmacokinetic studies of herbal medicines, many of the components were quickly absorbed into the bloodstream, thereby providing the rationale for a sampling time at 1 h. Blood was centrifuged at 1200× g at 4 °C for 30 min to obtain plasma; then, the sample was stored at −80 °C until LC-HRMS analysis. […]
The plasma samples were collected at 1 h after MBST administration in case of both the qualitative (non-targeted) analysis and the quantitative (targeted) analysis.
The plasma samples of AR- or MBST-treated rats collected at 1 h post-administration were pretreated by deproteinization using methanol before the LC-HRMS analysis as follows: 100 µL plasma sample was mixed with 500 µL methanol, and the resultant solution was vortexed for 2 min. The mixture was centrifuged at 7000× g at 4 °C for 5 min. The supernatant was dried using a centrifugal evaporator, and the dried residue was dissolved in 100 μL of the initial LC mobile phase which is composed of 0.1 vol% formic acid in water/acetonitrile (99.9/0.1, v/v) and recentrifuged at 7000× g at 4 °C for 5 min. Finally, a 5 μL aliquot of the supernatant was injected into the LC-HRMS system comprised of an Acquity Ultra-Performance Liquid Chromatography System (Waters, Milford, MA, USA) and a Xevo G2-XS quadrupole time-of-flight MS (Waters) and was chromatographically separated using an ACQUITY UPLC HSS T3 column (2.1 × 150 mm I.D., 1.8-μm particle size; Waters) with an ACQUITY UPLC HSS T3 VanGuard Pre-column (2.1 mm × 5 mm I.D., 1.8-μm particle size; Waters) at 40 °C. The mobile phase consisted of solution A (0.1% formic acid, v/v) and solution B (acetonitrile) with a gradient of solution B (0.1%, 0 min; 99%, 24 min; v/v) at a flow rate of 0.4 mL/min. The analysis of the mass spectrometer fit with an electrospray ionization probe with sensitivity mode was performed for both the positive and negative ion mode. The resolution of the mass spectrometer was set at >20,000. For MS^E experiments, two acquisition functions with different collision energies were created: a low-energy function with a collision energy of 6 eV and a high-energy function with collision energy ranging from 15 to 40 eV.

[2] = tested on: LPS-induced NO production in RAW264.7 cells; test: LPS-induced NO production in RAW264.7 cells (Griess method); assay type: cell-based, mouse; conditions: LPS 3 µg/mL, 24 h, mean of two experiments
Experimental: The experimental methods and results about the measurement of extracellular NO production are described as following.
Mouse macrophage-like RAW264. 7 cells were obtained from the European Collection of Authenticated Cell Cultures and cultured in Dulbecco’s Modified Eagle Medium (DMEM) containing 10% fetal bovine serum (FBS). The cells were maintained at 37 °C in a humidified incubator with an […]
RAW264. 7 cells were seeded in 48-well plates (6.0 × 10^4 cells per well) and incubated overnight, and then, 1 or 10 µmol/L of test compounds and 3 µg/mL of lipopolysaccharide (LPS; from Escherichia coli 0111: B4, L3024; Sigma-Aldrich) were added into the medium. Following 24 h after addition, 100 µL of conditioned media were collected and mixed with equal volume of Griess reagent (G4410; Sigma-Aldrich), and the mixture was incubated at room temperature for 15 min. Finally, absorbance was determined at 540 nm wave. Nitrite concentrations were quantified using a calibration curve obtained from a dilute solution of NaNO2. […]
production at concentrations of 1 or 10 µmol/L.
Table S3. Effect of Asiasari Radix ingredients on LPS -induced NO production.
Test Compound (% of LPS Control)
Amide A: (2E,4E,8Z,10E)-N-isobutyl-2,4,8,10-dodecatetraenamide. Each test compound (1 or 10 µmol/L) and lipopolysaccharide (LPS, 3 µg/mL) were added into a culture of RAW264. 7 cells. Following 24 h of substance addition, nitric oxide (NO) released in the cell medium was measured by Griess method. Percentage of NO production was calculated using the following equation: (nitrite concentration after treatment with test compound and LPS/nitrite concentration after treatment with LPS only) × 100. Each value represents the mean of two independent experiments

T1 sequence (Q9HBA0 whole entry): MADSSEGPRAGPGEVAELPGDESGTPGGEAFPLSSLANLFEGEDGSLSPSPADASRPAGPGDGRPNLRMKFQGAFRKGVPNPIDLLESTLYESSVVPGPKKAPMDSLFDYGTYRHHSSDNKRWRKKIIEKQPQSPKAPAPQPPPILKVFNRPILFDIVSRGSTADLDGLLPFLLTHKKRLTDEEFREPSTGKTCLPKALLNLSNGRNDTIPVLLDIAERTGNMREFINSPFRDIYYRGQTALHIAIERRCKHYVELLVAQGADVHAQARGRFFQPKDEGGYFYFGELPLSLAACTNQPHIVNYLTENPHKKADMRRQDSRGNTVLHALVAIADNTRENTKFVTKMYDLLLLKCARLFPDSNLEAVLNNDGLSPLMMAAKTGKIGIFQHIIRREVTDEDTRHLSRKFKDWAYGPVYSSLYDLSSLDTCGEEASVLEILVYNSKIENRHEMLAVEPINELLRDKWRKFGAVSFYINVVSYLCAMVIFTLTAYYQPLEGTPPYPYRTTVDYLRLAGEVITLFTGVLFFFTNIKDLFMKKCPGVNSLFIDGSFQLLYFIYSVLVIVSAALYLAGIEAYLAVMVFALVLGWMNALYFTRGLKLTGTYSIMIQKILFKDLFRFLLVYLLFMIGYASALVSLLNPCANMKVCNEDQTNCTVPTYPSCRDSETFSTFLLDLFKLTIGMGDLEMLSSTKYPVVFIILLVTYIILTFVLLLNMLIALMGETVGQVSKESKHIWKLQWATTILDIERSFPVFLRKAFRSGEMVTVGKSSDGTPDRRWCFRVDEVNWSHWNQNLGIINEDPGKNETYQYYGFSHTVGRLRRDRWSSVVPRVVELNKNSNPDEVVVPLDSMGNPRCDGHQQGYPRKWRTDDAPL

SMILES: c1cc2c(cc1[C@H]1OC[C@H]3[C@@H]1CO[C@H]3c1ccc3c(c1)OCO3)OCO2 [Asarinin, (−)-Asarinin]
- activation at 10 µM (human TRPV4): -0.1%
- Detection in plasma of rats treated with AR or MBST (non-targeted analysis) ([1]; rat, in vivo): not detected
- NO Production (% of LPS Control) ([2]; 1 µmol/L test compound): 99 % of LPS Control
- NO Production (% of LPS Control) ([2]; 10 µmol/L test compound): 97 % of LPS Control

SMILES: c1cc2c(cc1[C@H]1OC[C@H]3[C@@H]1CO[C@@H]3c1ccc3c(c1)OCO3)OCO2 [Sesamin]
- activation at 10 µM (human TRPV4): -0.1%
- Detection in plasma of rats treated with AR or MBST (non-targeted analysis) ([1]; rat, in vivo): not detected
- NO Production (% of LPS Control) ([2]; 1 µmol/L test compound): 96 % of LPS Control
- NO Production (% of LPS Control) ([2]; 10 µmol/L test compound): 78 % of LPS Control

SMILES: CCC(=O)c1cc2c(cc1OC)OCO2 [Methyl kakuol]
- % of Activation Compared to Positive Control against Each Subfamily of TRP Channel TRPV4 (human TRPV4): 0.9%
- AR-Treated Rat Plasma (detection of compound) ([1]; rat plasma 1 h after oral 2 g/kg AR, n = 1, LC-HRMS): + (The number of plus signs represents the sample number in which the compound was detected among AR-treated rat plasma (n = 1) and MBST-treated rat plasma (n = 3))
- MBST-Treated Rat Plasma (detection of compound) ([1]; rat plasma 1 h after oral 2 g/kg MBST, n = 3, LC-HRMS): + + + (The number of plus signs represents the sample number in which the compound was detected among AR-treated rat plasma (n = 1) and MBST-treated rat plasma (n = 3))
- Metabolites found in AR- or MBST-treated plasma ([1]; rat plasma, non-targeted LC-HRMS, phase I and II metabolite exploration): metabolized into a sulfate conjugate and a dehydrogenated + sulfate conjugate form
- NO Production (% of LPS Control) ([2]; 1 µmol/L test compound): 102 % of LPS Control
- NO Production (% of LPS Control) ([2]; 10 µmol/L test compound): 93 % of LPS Control

SMILES: C/C=C/C=C\CC/C=C/C=C/C(=O)NCC(C)C [Amide A, (2E,4E,8Z,10E)-N-isobutyl-2,4,8,10-dodecatetraenamide]
- activation at 10 µM (human TRPV4): 2.7%
- Metabolites found in AR- or MBST-treated plasma ([1]; rat, in vivo): metabolized into an alkylated and a water adducted + alkylated form
- NO Production (% of LPS Control) ([2]; 1 µmol/L test compound): 92 % of LPS Control
- NO Production (% of LPS Control) ([2]; 10 µmol/L test compound): 82 % of LPS Control
